As usually defined, the Kd is a measure of binding affinity in units of concentration.

In series [1] the target is T1, HSA (Homo sapiens, UniProt P02768).
T1 construct: purchased Sigma-Aldrich
The following applies: cited from earlier work.

The target of series [2] is T1, HSA. It is filed as binding. As to conditions: 1.0 µM 2′R-OTA, 1.5 µM HSA, site marker 0–30 µM, PBS pH 7.4.
For series [3], the system named is MDCK cells. The format is cell-based, canine. As to conditions: 24 h; for effect on the concentration of ATP and total protein: 0–50 µM. The text has this: Similarly to OTA, 2′R-OTA also forms very stable complexes with albumins (Table 2). Therefore, it was reasonable to hypothesize that the presence of albumin may decrease the 2′R-OTA-induced toxicity in cell experiments, due to the entrapment of the mycotoxin in the cell medium by albumin. To test the influence of albumin on the in vitro effects of ochratoxins, the acute cellular toxicity of 2′R-OTA and OTA was investigated in the absence and presence of HSA and fetal bovine serum (FBS). MDCK kidney cells were treated with the mycotoxins at increasing concentrations (0–50 µM) for 24 h with and without 10% FBS or 40 g/L HSA. Ten percent FBS is commonly used in cell culture media (it yields approximately 3.5 g/L final concentration of BSA) in cell experiments, whereas approximately 40 g/L HSA circulates in the human blood. The mycotoxin-induced loss of cell viability was evaluated based on ATP and total protein levels. […] Under the applied conditions, the presence of 10% FBS or 40 g/L HSA (without ochratoxins) had no significant effect on cell viability (data not shown). […] The weaker effect of FBS can be attributed to the lower BSA content of the cell medium (3.5 g/L BSA verses 40 g/L HSA). Since albumins form very stable complexes with both 2′R-OTA and OTA, albumin likely reduces the cellular uptake of these mycotoxins, resulting in their lower cellular toxicity.
MDCK (Madin-Darby canine kidney epithelial cell line, ATCC: CCL-34) cell culture was maintained in DMEM with 10% FBS, penicillin (100 U/mL), and streptomycin (100 µg/mL) at 37 °C in a humidified environment (5% CO2). Cells were trypsinized and plated in 96-well sterile plastic plates (approximately 10^4 cells/well) for overnight pre-incubation. Next day, the culture medium was replaced with fresh one (with or without 10% FBS or 40 g/L HSA), then cells were treated with increasing concentrations of 2′R-OTA and/or OTA (0, 1, 5, 10, 20 and 50 µM; in 150 µL medium/well). After 24 h incubation, cell viability was evaluated based on cellular ATP and total protein levels. […]

For series [4] the following is noted: humans; cited from earlier work.
For series [5] the following is noted: humans; cited from earlier work. The source holds these as a separate data set.
The target in a further series is rat serum albumin (RSA) (Rattus norvegicus, UniProt P02770). The experiment in a line: Fluorescence spectroscopy of 2′R-OTA/OTA-RSA complex (binding constant by Hyperquad, fluorescence enhancement). As to conditions: for Kd: K in L/mol, PBS pH 7.4, 25 °C. The protocol:
(§1) To test this hypothesis, the fluorescence emission spectra of 2′R-OTA (Figure 7A) and OTA (Figure 7B) were recorded in the absence and presence of albumins from different species, including human (HSA), bovine (BSA), porcine (PSA), and rat (RSA) serum albumins (λex = 394 nm).
(§2) However, excitation of the same samples at 394 nm leads to the excitation of both free and albumin-bound 2′R-OTA [23, 24]. […] Binding constants of 2′R-OTA-albumin complexes were determined by the Hyperquad program, based on the fluorescence intensities measured at 447 nm (Figure 8C,D).
(§3) Fluorescence spectroscopic analyses, including anisotropy measurements, were carried out employing a Hitachi F-4500 fluorescence spectrophotometer. Spectroscopic measurements were performed in phosphate buffered saline (PBS, pH 7.4) at 25 °C in the presence of air. Fluorescence emission spectrum of 2′R-OTA (1 µM) was recorded in the presence of increasing concentrations of albumin (0.0, 0.1, 0.25, 0.5, 0.75, 1.0, 1.25, 1.5, 2.0, 3.0 and 5.0 µM) using 295 and 394 nm as excitation wavelengths. At 394 nm, we excited directly 2′R-OTA and its albumin complex. However, using 295 nm excitation wavelength, albumin-bound 2′R-OTA was excited as a result of the energy transfer between albumins and 2′R-OTA [23, 31].
(§4) Binding constants (K) of mycotoxin-albumin complexes were calculated by non-linear fitting, using the Hyperquad2006 program package (Protonic Software) as described in previous studies. The stoichiometry of 2′R-OTA-albumin complexes was calculated based on the model associated with the lowest standard deviation.

In series [6] the target is porcine serum albumin (PSA) (Sus scrofa, UniProt P08835). The experiment in a line: Fluorescence spectroscopy of 2′R-OTA/OTA-PSA complex (binding constant by Hyperquad, fluorescence enhancement). As to conditions: λem = 447 nm; for Kd: K in L/mol, PBS pH 7.4, 25 °C. As for the experimental part:
as §1, §2, §3, §4

The subject of series [7] is MDCK cells. Briefly: Co-treatment of MDCK cells with OTA and 2′R-OTA (ATP levels/well). It is filed as cell-based, canine. As to conditions: sub-toxic 2′R-OTA concentrations, 24 h. The protocol:
Since 2′R-OTA appears in the circulation together with OTA, the toxic action of OTA in the presence of increasing 2′R-OTA concentrations was also tested. Both mycotoxins occupy Site I as their primary binding sites in albumin, therefore, 2′R-OTA may able to displace OTA from HSA, resulting in the increased cellular uptake and cytotoxicity of OTA in the presence of 2′R-OTA. Because 40 g/L HSA completely abolished the acute toxic action of ochratoxins, co-treatment of MDCK cells with OTA and 2′R-OTA was investigated without albumin and in the presence of 10% FBS. ATP levels/well were quantified after 24 h incubation. […] In the presence of FBS (Figure 10B), the 2′R-OTA-induced further loss in cell viability may be partly attributed to the displacement of OTA from albumin by 2′R-OTA. […] Therefore, other toxicokinetic and/or toxicodynamic mechanism(s) may be involved. Despite its relatively lower toxicity, when simultaneously present 2′R-OTA with OTA, 2′R-OTA can increase the effect of OTA.
MDCK (Madin-Darby canine kidney epithelial cell line, ATCC: CCL-34) cell culture was maintained in DMEM with 10% FBS, penicillin (100 U/mL), and streptomycin (100 µg/mL) at 37 °C in a humidified environment (5% CO2). […] After 24 h incubation, cell viability was evaluated based on cellular ATP and total protein levels. […]

The target of series [8] is bovine serum albumin (BSA) (Bos taurus, UniProt P02769). Briefly: Fluorescence spectroscopy of 2′R-OTA/OTA-BSA complex (binding constant by Hyperquad, fluorescence enhancement). The following applies: for Kd: K in L/mol, PBS pH 7.4, 25 °C. As for the experimental part:
as §1, §2, §3, §4

Series [9] concerns the target human serum albumin (HSA) (Homo sapiens, UniProt P02768). Briefly: Fluorescence spectroscopy of 2′R-OTA-HSA complex (binding constant by Hyperquad, fluorescence enhancement). The protocol:
as §1, §2, §3, §4

Series [10] has as its system IHKE and HepG2 cell lines. As to conditions: in vitro studies; cited from earlier work.
In series [11] the target is T1, HSA. The experiment in a line: Thermodynamics of 2′R-OTA-HSA complex formation (van’t Hoff, six temperatures). It is filed as binding. The text has this:
Since thermodynamic data give a deeper insight into the nature of protein-ligand interactions (including binding forces are involved in the complex formation), the binding ability of 2′R-OTA towards HSA was also examined at different temperatures. According to the van’t Hoff equation (Equation (2)), the logK values expressed as the function of the appropriate reciprocal temperatures show good linearity (Figure 6).
For the deeper insight into 2′R-OTA-HSA interaction, binding constants of mycotoxin-albumin complexes were also determined at six different temperatures (298, 301, 304, 307, 310 and 313 K). The binding constants were determined by the Hyperquad2006 program package, using 394 and 447 nm as excitation and emission wavelengths, respectively. Thermodynamic parameters associated to the complex formation between 2′R-OTA and HSA were determined based on the van ’t Hoff equation: (2) logK=−ΔG /RT=−ΔH/2.303RT+ΔS/2.303R where ΔG, ΔH, and ΔS denote the Gibbs free energy, enthalpy, and entropy changes of the binding reaction, respectively; while R is the gas constant and T refers the temperature.

Setting [12] is: 1 µM mycotoxin, 5 µM albumin, PBS, λex = 394 nm.
The mark [13] stands for this setting: both excitation wavelengths (295 or 394 nm).

Each structure is given as a SMILES string. Several values for one entry are separate records, joined by “and”; a condition that tells them apart may be missing. Equal values may be shown once.

Chain of porcine serum albumin (PSA) (P08835 25-607): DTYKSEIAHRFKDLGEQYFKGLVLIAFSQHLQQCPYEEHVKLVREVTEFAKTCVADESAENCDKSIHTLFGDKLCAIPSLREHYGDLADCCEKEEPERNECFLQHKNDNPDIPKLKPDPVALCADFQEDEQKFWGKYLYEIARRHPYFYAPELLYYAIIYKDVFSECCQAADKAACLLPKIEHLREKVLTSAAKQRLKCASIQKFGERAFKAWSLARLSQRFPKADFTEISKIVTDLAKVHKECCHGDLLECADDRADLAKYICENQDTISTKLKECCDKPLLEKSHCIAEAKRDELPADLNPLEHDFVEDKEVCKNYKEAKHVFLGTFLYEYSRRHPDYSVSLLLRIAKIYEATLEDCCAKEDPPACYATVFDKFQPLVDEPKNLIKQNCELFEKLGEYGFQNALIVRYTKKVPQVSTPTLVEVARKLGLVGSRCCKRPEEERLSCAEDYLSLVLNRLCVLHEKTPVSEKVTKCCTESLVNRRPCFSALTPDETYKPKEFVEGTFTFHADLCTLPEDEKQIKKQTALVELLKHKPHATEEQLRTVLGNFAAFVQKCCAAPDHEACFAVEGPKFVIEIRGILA
Chain of bovine serum albumin (BSA) (P02769 25-607): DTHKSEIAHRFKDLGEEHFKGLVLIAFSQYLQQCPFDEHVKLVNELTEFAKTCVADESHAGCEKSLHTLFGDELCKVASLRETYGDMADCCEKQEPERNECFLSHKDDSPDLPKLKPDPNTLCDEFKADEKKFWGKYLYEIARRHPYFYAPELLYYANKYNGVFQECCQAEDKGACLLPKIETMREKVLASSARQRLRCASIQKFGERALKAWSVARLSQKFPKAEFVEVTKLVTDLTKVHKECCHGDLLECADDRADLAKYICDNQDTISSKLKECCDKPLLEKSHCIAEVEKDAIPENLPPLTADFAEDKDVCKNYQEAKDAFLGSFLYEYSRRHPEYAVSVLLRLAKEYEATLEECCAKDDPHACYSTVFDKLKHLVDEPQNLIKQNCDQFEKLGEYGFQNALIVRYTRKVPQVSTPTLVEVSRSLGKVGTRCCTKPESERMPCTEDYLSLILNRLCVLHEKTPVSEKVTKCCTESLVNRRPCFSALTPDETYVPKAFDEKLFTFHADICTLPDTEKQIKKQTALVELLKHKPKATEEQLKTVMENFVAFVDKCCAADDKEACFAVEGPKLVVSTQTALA
Chain of rat serum albumin (RSA) (P02770 25-608): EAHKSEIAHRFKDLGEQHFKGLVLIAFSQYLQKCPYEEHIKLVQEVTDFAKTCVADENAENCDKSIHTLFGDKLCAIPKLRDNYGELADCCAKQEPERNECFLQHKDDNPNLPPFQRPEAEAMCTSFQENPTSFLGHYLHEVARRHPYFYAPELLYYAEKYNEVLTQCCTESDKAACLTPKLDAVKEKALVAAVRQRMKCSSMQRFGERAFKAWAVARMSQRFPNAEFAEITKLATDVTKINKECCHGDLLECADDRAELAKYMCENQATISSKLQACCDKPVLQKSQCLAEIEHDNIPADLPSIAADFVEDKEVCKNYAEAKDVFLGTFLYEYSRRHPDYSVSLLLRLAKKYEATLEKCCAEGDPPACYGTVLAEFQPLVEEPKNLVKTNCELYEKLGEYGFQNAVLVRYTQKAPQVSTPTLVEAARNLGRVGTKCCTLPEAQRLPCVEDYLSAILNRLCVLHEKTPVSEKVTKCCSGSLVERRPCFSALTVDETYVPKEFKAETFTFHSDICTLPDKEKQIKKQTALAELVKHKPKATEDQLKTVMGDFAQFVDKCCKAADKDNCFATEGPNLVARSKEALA
T1 sequence (P02768 25-609): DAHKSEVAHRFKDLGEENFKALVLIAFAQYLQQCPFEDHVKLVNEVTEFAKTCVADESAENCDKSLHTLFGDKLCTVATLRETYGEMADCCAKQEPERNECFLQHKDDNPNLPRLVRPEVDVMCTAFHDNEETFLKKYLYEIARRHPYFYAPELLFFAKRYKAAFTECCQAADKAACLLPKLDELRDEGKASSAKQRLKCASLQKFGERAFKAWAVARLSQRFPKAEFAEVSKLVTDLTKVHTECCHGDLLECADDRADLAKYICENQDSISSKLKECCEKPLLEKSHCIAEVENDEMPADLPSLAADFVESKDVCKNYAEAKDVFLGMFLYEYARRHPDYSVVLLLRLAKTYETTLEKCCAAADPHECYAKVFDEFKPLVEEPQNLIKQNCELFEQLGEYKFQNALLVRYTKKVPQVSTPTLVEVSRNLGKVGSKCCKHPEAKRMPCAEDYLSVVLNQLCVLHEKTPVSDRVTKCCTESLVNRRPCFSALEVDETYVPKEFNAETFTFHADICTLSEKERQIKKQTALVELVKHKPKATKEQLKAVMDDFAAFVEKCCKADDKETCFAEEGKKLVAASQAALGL
Chain of human serum albumin (HSA) (P02768 25-609): as above

In the case of `CC1=C2C(=CO[C@H](C)[C@H]2C)C(O)=C(C(=O)O)C1=O` [citrinin], at HSA [1], the “binding constant K of the complex with HSA” value (“binding constant K” below) was 200000 L/mol.

Turning to `CN(C)c1ccc(N=Nc2ccc(S(=O)(=O)[O-])cc2)cc1.[Na+]` [methyl orange], on HSA [1], the “affinity to HSA compared with another ligand” value is “much lower affinity to HSA than bilirubin”. Also, the “displacement of 2′R-OTA from HSA by the site marker” value on HSA [2] was “strongly displaced”.

Take `C[C@H]1CCCC(=O)CCC/C=C/c2cc(O)cc(O)c2C(=O)O1` [zearalenone]: at HSA [1], the “binding constant K” value is given as 10^5 L/mol.

Take `C[C@@H]1Cc2c(Cl)cc(C(=O)N[C@@H](Cc3ccccc3)C(=O)O)c(O)c2C(=O)O1` [OTA, Ochratoxin A]: the “effect on the concentration of ATP and total protein” value in the series on MDCK cells [3] was “dose-dependent, significant decreases”. Besides, on HSA [1], the “stability of OTA-HSA complex higher than that of the complex with bovine albumin” value was “approximately tenfold” and the “stability of OTA-HSA complex higher than that of the complex with rat albumin” value is roughly 30 fold. Moreover, the “affinity order toward albumins of different species” value at HSA [1] (previous investigations) is given as “Human > bovine > porcine > rat”. In series [4], the plasma elimination half-life result was “approximately one month”. Further, the plasma protein binding in [5] is 99.8%. Also, the “fluorescence enhancement by RSA compared with other albumins” value at rat serum albumin (RSA) (setting [12]) is “highest fluorescence”.

For `C=CC1=C(C)/C(=C/c2[nH]c(Cc3[nH]c(/C=C4\NC(=O)C(C)=C4C=C)c(C)c3CCC(=O)O)c(CCC(=O)O)c2C)NC1=O` [bilirubin], the “displacement of 2′R-OTA from HSA by the site marker” value at HSA [2] is “strongly displaced”.

Turning to `C[C@@H]1Cc2c(Cl)cc(C(=O)N[C@H](Cc3ccccc3)C(=O)O)c(O)c2C(=O)O1` [2′R-OTA, 2′R-ochratoxin A], the “effect on the concentration of ATP and total protein” value with MDCK cells [3] is “dose-dependent, significant decreases”. In the series on MDCK cells [3], the “cytotoxicity relative to OTA” value is “approximately 10 times lower”. In addition, the “affinity to HSA lower than that of OTA” value at HSA [1] was “approximately tenfold”. Besides, the “binding constant K” value on HSA [1] was ~ 2 × 10^6 L/mol and 2 × 10^6 L/mol. Moreover, the “binding constant of 2′R-OTA-HSA complex higher than that of aflatoxin-HSA complexes” value at HSA [1] is given as 100 fold. Further, the Kd in series [6] (logK (± SD) of binding constant, λex = 295 nm) is 0.617 µM; in series [6] (logK (±SD) of binding constant, λex = 394 nm) it was 0.145 µM; in series [8] (logK (± SD) of binding constant, BSA, λex = 295 nm, λem = 447 nm), 0.214 µM; in [8] (logK (±SD) of binding constant, BSA, λex = 394 nm, λem = 447 nm), 0.0479 µM; on rat serum albumin (RSA) (logK (± SD) of binding constant, RSA, λex = 295 nm, λem = 447 nm), 0.355 µM; at rat serum albumin (RSA) (logK (±SD) of binding constant, RSA, λex = 394 nm, λem = 447 nm) it was 0.0646 µM. In addition, in series [9], the Kd is 0.525 µM. Besides, the “I/I0 (±SD), enhancement of the fluorescence of 2′R-OTA by complex formation” value in series [6] (λex = 394 nm, PBS) turned out to be 1.98 ± 0.05; in [8] (BSA, λex = 394 nm, λem = 447 nm, PBS), 2.48 ± 0.06; at rat serum albumin (RSA) (RSA, λex = 394 nm, λem = 447 nm, PBS), 2.22 ± 0.09; in [9] (HSA, λex = 394 nm, λem = 447 nm, PBS), 2.35 ± 0.07. Besides, the “effect of 2′R-OTA on the toxic effect of OTA” value in the series with MDCK cells [7] (absence of FBS, 1 μM OTA) was “increased significantly”; in the series on MDCK cells [7] (presence of 10% FBS, 20 μM OTA), “increased significantly”. Moreover, the “fluorescence enhancement by BSA compared with other albumins” value in series [8] (setting [12]) is “highest emission signal”. Further, in series [8] (setting [13]), the “affinity to BSA relative to HSA and PSA” value was 2–3 times higher. Besides, the “affinity to RSA relative to HSA and PSA” value on rat serum albumin (RSA) (setting [13]) is listed as 2–3 times higher. Further, the equilibrium dissociation constant (Kd) at 1 µM in series [9] (human, human serum albumin (HSA) in PBS, pH 7.4) is 0.229 µM. Besides, the “acute toxicity compared with OTA” value in series [10] is recorded as “lower acute toxicity”. Besides, on HSA [11] (298-313 K), the “ΔH of 2′R-OTA-HSA complex formation” value was -2.02 kcal/mol. Besides, the “ΔS of 2′R-OTA-HSA complex formation” value on HSA [11] (298-313 K) was 102.62 J K^-1 mol^-1. Further, the “ΔG of 2′R-OTA-HSA complex formation” value at HSA [11] (298K (room-temperature)) was -9.331 kcal/mol.

The record behind these values is PMC6162703, “Interaction of 2′R-ochratoxin A with Serum Albumins: Binding Site, Effects of Site Markers, Thermodynamics, Species Differences of Albumin-binding, and Influence of Albumin on Its Toxicity in MDCK Cells” (Toxins, 2018).
